According to patent US20080306080A1, “NEUTROPHILIA INHIBITOR” (Nissan Chemical Industries, Ltd., priority 2003, published 2008):

Columns and labels:
[1] = test system: neutrophilia in the rat airway; assay: Effect on neutrophilia in the rat airway (LPS inhalation, neutrophil count in bronchoalveolar washings); format: in vivo, Wister rats; details: oral 1 mg/kg, 3 mg/kg and 10 mg/kg, 30 min before LPS inhalation; washings about 5 hours after inhalation
Method: Male Wister rats weighing from 100 to 200 g were put in a clear plastic inhalation box for small animals (W30×H30×D30 cm), and 30 mL of a lipopolysaccharide solution (LPS E. coli 0.3 mg/mL saline) atomized to an average particle size of 2.0-6.0 μm was administered by inhalation from an ultrasonic nebulizer (TUR-3200, NIHON KOHDEN) for 30 minutes.
The lipopolisaccharide inhalation was preceded, 30 minutes in advance, by oral administration of Compound A suspended in 0.5% methylcellulose (MC) at doses of 1 mg/4 mL/kg, 3 mg/4 mL/kg and 10 mg/4 mL/kg, or by oral administration of 0.5% MC at a dose of 2 mL/kg to a solvent group. […]
About 5 hours after the lipopolisaccharide inhalation, bronchoalveolar washings were collected. […] The total number of leukocytes in the suspension was counted with a multichannel blood cell counter and designated as the total leukocyte count.
Further, after the cell suspension was adjusted to a total leukocyte count of 1×10^6 cells/mL, 100 μL of the suspension was centrifuged at room temperature at 400 rpm for 4 minutes in a cytocentrifuge (Thermo Shandon) and made into smears. The smears were stained with Diff-Quick (International Reagents Co., Ltd.), and monocytes, eosinophils and neutrophils were counted under an inverted microscope (×400) to about 500 cells. […]

[2] = test system: airway neutrophilia induced by exposure to tobacco smoke; assay: Guinea pig respiratory dysfunction model with airway neutrophilia induced by exposure to tobacco smoke; format: in vivo, Hartley guinea pigs; details: oral 10 mg/kg before each tobacco smoke exposure, 3 weeks, measured the day after
Method: Hartley guinea pigs weighing from 350 to 450 g were exposed to cigarette smoke for an hour per day, five days per week, for 3 weeks, by using a tobacco smoke exposer and an exposure chamber (Flow-pasttype nose-only inhalation chamber, Muenster).
The tobacco smoke exposure was preceded, 15-45 minutes in advance, by oral administration of the compound suspended in 0.5% methylcellulose (MC) at a dose of 10 mg/2 mL/kg or by oral administration of 0.5% MC at a dose of 2 mL/kg to a solvent group. To the non-treatment group, 0.5% MC was orally administered at a dose of 2 mL/kg, 15-45 minutes before air exposure. From 4 to 6 […] were carried out for each group. The airway resistances and neutrophil counts were measured the day after three weeks of the tobacco smoke exposure. The airway resistances were measured by double chamber plethysmography with a respiratory function tester (Puloms-1, M.I.P.S.) during wakefulness. The neutrophil counts were measured in the same manner as in Test Example 1. The effect of Compound A was evaluated by calculating the suppression ratio (%) in accordance with the following formula.
Suppression ratio=((measured value for the control group−measured value for the normal value)−(measured value for the Compound A group−measured value for the normal group))×100/(measured value for the control group−measured value for the normal value)

SMILES: Cl.O=c1[nH]nc(OCCCc2ccc(Cl)cc2)c(NCc2cccnc2)c1Br [Compound A, 4-bromo-6-[3-(4-chlorophenyl)propoxy]-5-(3-pyridylmethylamino)-3(2H)-pyridazinone hydrochloride]
- antineutrophilia effect in the rat airways (neutrophil counts in bronchoalveolar washings) [1]: had antineutrophilia effect
- suppression ratio of increase in airway resistance ([2]; double chamber plethysmography): 100%
- suppression ratio of neutrophilia (neutrophil count) [2]: 73%
